Laboratory results from patent publication US12016358B2, “Composition comprising taste modulation compounds, their use and foodstuff comprising them” (V. MANE FILS, priority 2015, dated 2024).
Entries after “also recorded” stand apart in the source; their conditions may differ. Marks after values point to notes of the source that are not given here.

Columns and labels:
Type in all cases: in vivo, human
[1] = tested on: Saltiness and Salivation (cheese sauce); experiment: Various levels of pantolactone (D-isomer) in cheese sauce, expert tasters; settings: for Saltiness score: 1 = low up to 5 = high, Control 1
Text: Five expert tasters consumed the Control and then samples comprising various levels of pantolactone (D-isomer). It was concluded that pantolactone (D-isomer) is clean tasting up to 10-12 ppm in cheese sauce.

[2] = tested on: umami taste perception (chicken broth); experiment: Chicken broth, expert tasters; settings: Campbell's chicken noodle soup broth 50:50 with water; 5 ppm (each); vs Control
Text: Five expert tasters consumed the Control (chicken broth) and then chicken broth with either 5 ppm of pantolactone (D-isomer) or 5 ppm of mevalonolactone.

[3] = tested on: Sweetness of Rebaudioside-A; experiment: Sweetness of Rebaudioside-A water solutions, expert tasters
Text: The product containing either 25 or 250 ppm Reb-A without pantolactone (Control) is compared with the product containing pantolactone (D-isomer) added at either 5, 10 or 20 ppm as noted in Table 6.

[4] = tested on: Heat Perception of Chili Extract Paste; experiment: Heat perception of chili extract paste in water, expert tasters; settings: 5 ppm
Description: Pantolactone (D-isomer) and mevalonolactone were added at 5 ppm to chili extract paste and dissolved in water.
The taste perception of the product without the flavour modifying composition (Control) was compared with the same product (Test) containing the flavour modifying composition. Four expert tasters consumed the chili extract paste solution alone and then the tasters consumed one of two different dilution formats (medium or hot) of the chili extract paste solution containing 5 ppm of either pantolactone (D-isomer) or mevalonolactone.

[5] = tested on: Sweetness and Bitterness of Milk Chocolate; experiment: Milk chocolate, expert testers; settings: 5 ppm, vs Control
Text: The taste perception of the product without the addition of flavour modification compostion (Control) was compared with the same product (Test) containing the flavour modifying composition.

[6] = tested on: Complexity and Body of Wine; experiment: Wine, expert tasters; settings: 5 ppm (each); vs Control
Description: Pantolactone (D-isomer) and mevalonolactone were added individually or as a mixture at 5 ppm each to wine.

[7] = tested on: Flavour Balance of a Tomato-Based Condiment; experiment: Ketchup samples, expert panel; settings: 5.4 ppm; vs Control (0.1% ethyl alcohol)
Description: Ketchup containing sucrose as the base sweetener in two different formulations and ketchup containing sucralose as the base sweetener in a third formulation were evaluated without (control) and with addition of pantolactone added at 5.4 ppm (test).

[8] = tested on: Salt Taste in a Low Sodium Soy Sauce; experiment: Low sodium soy sauce, expert tasters; settings: 5 ppm solution, 1 ml (0.005 mg) between two 1 g soy sauce portions
Description: Low sodium soy sauce (Kikkoman's®) was evaluated without and with a water based solution of 2-acetyl-butyrolactone and 4-hydroxy-6-methyl-2-pyrone at 5 ppm concentration. Five expert tasters consumed 1 g low sodium soy sauce alone, then 1 ml of flavour modifying solution, and then again 1 g of the low sodium soy sauce.

[9] = tested on: Saltiness of Cheese Sauce; experiment: Cheese sauce (Ragu), expert tasters; settings: 5 ppm solution, 1 ml (0.005 mg) between two 20 g portions
Description: Cheese sauce (Ragu®) was evaluated without and with a water based solution of 2-acetyl-butyrolactone and 4,6-dimethyl-alpha-pyrone at 5 ppm concentration. Five expert tasters consumed 20 g cheese sauce alone, then 1 ml of flavour modifying solution, and then again 20 g of cheese sauce.

[10] = tested on: Salt Taste in a Chicken Powder Solution; experiment: Saltiness of chicken powder solution, DFR panel; settings: chicken powder and sodium chloride in water, 5 ppm
Description: Panelists evaluated all samples in fully enclosed partitioned booths under white lights. Fizz NETWORK Software Acquisitions Biosystemes 2.478 was used for data collection. Each panelist was provided with filtered water for rinsing and instructed to follow a strict rinsing procedure. The rinsing protocol required panelists to rinse prior to tasting the first sample, and after tasting each sample.
Samples were evaluated using a Deviation from Reference (DFR) method. Panelists were given an identified reference labeled “000” and a coded sample simultaneously. The coded sample was either a blind, coded reference or a coded test sample. The panelists were instructed to taste the reference (000) first and mentally evaluate its SALTINESS intensity. Panelists were then instructed to taste and rate the coded sample's intensity for SALTINESS compared to the identified reference. Sample sets were given to the panelists in balanced, randomized order. A one-minute wait period was enforced between sample sets to reduce flavour carryover.
Panelists rated SALTINESS intensity difference from the reference using a 9-pt scale anchored with the following descriptors: (−4) Extremely less than Reference, (0) Same as Reference, (4) Extremely more than Reference. Number values were NOT shown on the scale. Statistical mean differences were calculated using one-way ANOVA using Fizz Calculations Biosystemes 2.478. […]

[11] = tested on: Saltiness and Salivation (cheese sauce); experiment: Mixtures of pantolactone, m-cresol and 3-n-propylphenol in cheese sauce, expert tasters
Text: A number of combinations of Pantolactone, m-cresol and 3-n-propylphenol are noted in Table 15. Five expert tasters consumed the Control and then each of the treatments and recorded a score.

[12] = water, 25 ppm Reb-A, 20 ppm pantolactone (D-isomer)

`CC1(C)COC(=O)C1O` (single isomer, unassigned) [pantolactone (D-isomer)] was tested, and the Salivation effect ([1]; 0.54 ppm) was “no”, the Saltiness score ([1]; 0.54 ppm) was 1.8 and the Salivation effect ([1]; 2.7 ppm) was “yes”. For the same molecule, the Saltiness score ([1]; 2.7 ppm) was 2.2, the Salivation effect ([1]; 5.4 ppm) was “yes” and the Saltiness score ([1]; 5.4 ppm) was 2.5. For the same molecule, the Salivation effect ([1]; 10.8 ppm) was “yes”, the Saltiness score ([1]; 10.8 ppm) was 3 and the Salivation effect ([1]; 27 ppm) was “yes”. The Saltiness score ([1]; 27 ppm) was 3 **, the Observations [2] was “amplify umami taste perception; also recorded: Fatty from chicken fat; also recorded: Enhanced umami” and the “sweetness vs control sample” value ([3]; increasing levels added to 25 ppm Reb-A water solutions, up to 20 ppm) was “more sweetness than the control sample”. The perception of sweetness ([3]; increasing levels added to 250 ppm Reb-A water solutions) was “cleaner upfront perception of sweetness with less lingering taste”, the “Taster Observations Taster 1” value [3, 12] was “second sweetest” and the “Taster Observations Taster 2” value [3, 12] was “sweet like 10 ppm”. For the same molecule, the “perception of heat (conclusion)” value [4] was “lower perception of heat and less lingering of heat”, the “sweetness and bitterness perception, Hershey's Bliss Chocolate” value [5] was “perceived sweeter and less bitter” and the “perception of complexity and body, Box red wine - Vella Burgundy California Table Wine” value [6] was “more complex and having more body”. For the same molecule, the “Observations Ketchup sucralose-based, Source #3” value [7] was “improved dramatically in all elements”, the “Observations Ketchup sucrose-based, Source #1” value [7] was “enhanced in a balanced way” and the “Observations Ketchup sucrose-based, Source #2” value [7] was “taste enhancement but not in a balanced way”.
In the case of `C[C@@]1(O)CCOC(=O)C1` [mevalonolactone], the Observations [2] is reported as “amplify umami taste perception; also recorded: Enhanced umami; also recorded: Fatty from chicken fat”, the “perception of heat (conclusion)” value [4] is reported as “enhanced perception of fruitiness but no change in the perception of heat” and the “perception of complexity and body, Box red wine - Vella Burgundy California Table Wine” value [6] is reported as “more complex and having more body”.
With `CC(=O)C1CCOC1=O` (stereo not shown) [2-acetyl-butyrolactone] the “Kikkoman's Low Sodium Soy Sauce: taste observation” value [8] was “amplified saltiness; also recorded: slightly amplified saltiness” and the “Cheese Sauce: taste observation” value [9] was “amplified saltiness; also recorded: Slightly amplified umami”.
With `Cc1cc(C)oc(=O)c1` [4,6-dimethyl-alpha-pyrone] the “Cheese Sauce: taste observation” value [9] was “amplified saltiness; also recorded: Slightly amplified umami”.
With `CC1(C)COC(=O)C1O` (stereo not shown) [pantolactone, dihydro-3-hydroxy-4,4-dimethyl-2(3H)-furanone] the “difference in SALTINESS between Control and Variant” value ([10]; Control presented as the reference) was “significant difference” and the “difference in SALTINESS between Control and Variant” value ([10]; Variant presented as the reference) was “not a significant difference in SALTINESS”.
For `CCCc1cccc(O)c1` [3-n-propylphenol], the “conclusion on blends / components” value [11] was “effective, but exhibits flavour aroma character at slightly elevated levels”.
With `Cc1cc(O)cc(=O)o1` [4-hydroxy-6-methyl-2-pyrone] the “Kikkoman's Low Sodium Soy Sauce: taste observation” value [8] was “amplified saltiness”.
